The numbers were not newly measured in US20250354118A1, “COMPOSITIONS AND METHODS FOR NK CELL DIFFERENTIATION” (Umoja Biopharma, Inc., priority 2022, published 2025), which cites them from elsewhere.

A word on the Kd: it is a measure of binding affinity in units of concentration.

This data set concerns the target PSMA-positive human prostate cancer cells (Homo sapiens, UniProt Q04609). The conditions noted are these: Kularatne et al., Mol Pharm. 2009.

PSMA-positive human prostate cancer cells, sequence (Q04609 whole entry): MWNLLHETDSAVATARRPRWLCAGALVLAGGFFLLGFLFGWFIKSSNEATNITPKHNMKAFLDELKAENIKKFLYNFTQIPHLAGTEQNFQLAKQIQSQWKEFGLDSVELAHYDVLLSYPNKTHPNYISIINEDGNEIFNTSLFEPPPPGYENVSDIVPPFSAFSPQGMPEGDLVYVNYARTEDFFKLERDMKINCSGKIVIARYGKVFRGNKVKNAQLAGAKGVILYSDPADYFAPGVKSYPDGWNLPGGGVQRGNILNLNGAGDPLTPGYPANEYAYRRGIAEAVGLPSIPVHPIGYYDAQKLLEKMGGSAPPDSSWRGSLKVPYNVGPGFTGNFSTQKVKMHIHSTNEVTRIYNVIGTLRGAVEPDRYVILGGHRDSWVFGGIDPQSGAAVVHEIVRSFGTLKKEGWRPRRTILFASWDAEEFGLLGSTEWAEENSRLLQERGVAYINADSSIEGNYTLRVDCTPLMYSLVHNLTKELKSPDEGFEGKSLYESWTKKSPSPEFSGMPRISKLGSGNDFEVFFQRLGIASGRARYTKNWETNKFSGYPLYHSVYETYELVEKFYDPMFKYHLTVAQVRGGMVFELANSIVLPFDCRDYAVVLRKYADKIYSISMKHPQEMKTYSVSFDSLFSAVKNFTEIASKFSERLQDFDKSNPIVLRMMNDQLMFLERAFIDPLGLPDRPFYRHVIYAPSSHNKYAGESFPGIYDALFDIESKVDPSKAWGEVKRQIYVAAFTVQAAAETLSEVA

`O=C(O)CC[C@H](NC(=O)N[C@@H](CCC(=O)O)C(=O)O)C(=O)O` [DUPA]: the equilibrium dissociation constant (Kd) is 14 nM.
